Values of other authors in patent US20070148205A1, “Prevention of Arterial Restenosis with Active Vitamin D Compounds” (priority 2004, published 2007).

Details: in vivo

Hypercalcemic effect compared to calcitriol, in words: reduced hypercalcemic effect
SMILES: C=C1/C(=C\C=C2/CCC[C@]3(C)C([C@H](C)CC#CC(C)(C)O)=CC[C@@H]23)C[C@@H](O)C[C@@H]1O [Ro23-7553]
